Reference: patent publication US20080194585A1, “Fungicidal Pyrazine Derivatives” (priority 2005, published 2008)
Marks after values point to notes of the source that are not given here.

Experiments:
Conditions in all cases: 40 ppm (marked *); 100 = 100% disease control, 0 = no control
Plasmopara viticola = test: Test D: grape downy mildew, spray after inoculation of grape seedlings; assay type: in vivo
Excerpt: Upon removal, disease ratings were made. […] A dash (-) indicates no test results.

Phytophthora infestans = test: whole plant or invertebrate; assay type: in vivo
Septoria tritici = test: Test J: wheat leaf blotch, preventive spray on wheat seedlings; assay type: in vivo
Excerpt: A dash (-) indicates no test results.

fusarium graminearium = test: Test I: wheat head scab, preventive spray on wheat seedlings
Protocol: (the causal agent of wheat head scab) and incubated in a saturated atmosphere at 20° C. for 72 h, and then moved to a growth chamber at 22° C. for 5 days, after which disease ratings were made.

[1] = tested on: Puccinia recondita f. sp. tritici; test: Test K: wheat leaf rust, preventive spray on wheat seedlings
Botrytis cinerea = test: Test E: tomato botrytis, preventive spray on tomato seedlings
Septoria nodorum = test: Test H: wheat glum blotch, preventive spray on wheat seedlings
Protocol: (the causal agent of wheat glum blotch) and incubated in a saturated atmosphere at 20° C. for 48 h, and then moved to a growth chamber at 22° C. for 5 days, after which disease ratings were made.

[2] = tested on: Erysiphe graminis f. sp. tritici; test: Test L: wheat powdery mildew, preventive spray on wheat seedlings
Sclerotinia sclerotiorum = test: Test C: cucumber white mold, preventive spray on cucumber seedlings
Pythium aphanidermatum = test: Test A: bluegrass pythium blight, preventive spray on bluegrass seedlings
Rhizoctonia oryzae = test: Test G: turf brown patch, preventive spray on creeping bent grass seedlings
Protocol: (the causal agent of turf brown patch) and incubated in a saturated atmosphere at 27° C. for 24 h, and then moved to a growth chamber at 27° C. for 5 days, after which disease ratings were made.

[3] = tested on: Colletotrichum orbiculare; test: Test B: cucumber Colletotrichum anthracnose, preventive spray on cucumber seedlings

Row | Structure (SMILES) | Test D disease control rating (Plasmopara viticola) | Test F disease control rating (Phytophthora infestans) | Test J disease control rating (Septoria tritici) | Test I disease control rating (fusarium graminearium) | Test K disease control rating [1] | Test E disease control rating (Botrytis cinerea) | Test H disease control rating (Septoria nodorum) | Test L disease control rating [2] | Test C disease control rating (Sclerotinia sclerotiorum) | Test A disease control rating (Pythium aphanidermatum) | Test G disease control rating (Rhizoctonia oryzae) | Test B disease control rating [3]
1 | O=c1c(-n2cccn2)nc(Cl)c(-c2c(F)cccc2F)n1CCO [compound 268] | 0* % | 0* % | 7* % | 0* % | 82* % | 0* % | 0* % | 0* % | 0* % | 0* % | 0* % | 0* %
2 | O=c1c(-n2cccn2)nc(Cl)c(-c2c(F)cccc2F)n1CCF [compound 269] | 0* % | 0* % | 99* % | 0* % | 91* % | 0* % | 100* % | 0* % | 0* % | 0* % | 0* % | 0* %
3 | O=c1c(-n2cccn2)nc(Cl)c(-c2c(F)cccc2F)n1CCBr [compound 270] | 24* % | 0* % | 95* % | 0* % | 94* % | 85* % | 0* % | 0* % | 0* % | 0* % | 0* % | 0* %
4 | O=c1c(-n2cccn2)nc(Cl)c(-c2c(F)cccc2F)n1Cc1ccc(F)cc1 [compound 272] | 57* % | 0* % | 100* % | 0* % | 100* % | 100* % | 99* % | 100* % | 44* % | 0* % | 59* % | 95* %
5 | O=c1c(-n2cncn2)nc(Cl)c(-c2c(F)cccc2F)n1Cc1ccc(F)cc1 [compound 273] | 0* % | 0* % | 92* % | 0* % | 86* % | 99* % | 0* % | 0* % | 0* % | 0* % | 0* % | 0* %
6 | N#Cc1nc(Cl)c(-c2c(F)cccc2F)n(Cc2ccc(F)cc2)c1=O [compound 274] | 0* % | 0* % | 45* % | 0* % | 91* % | 0* % | 0* % | 71* % | 0* % | 0* % | 0* % | 0* %
7 | O=c1c(-n2cccn2)nc(Cl)c(-c2c(F)cccc2F)n1Cc1cccc(Cl)c1 [compound 275] | 0* % | 0* % | 100* % | 0* % | 97* % | 100* % | 99* % | 61* % | 0* % | 0* % | 0* % | 47* %
8 | O=c1c(-n2cncn2)nc(Cl)c(-c2c(F)cccc2F)n1Cc1cccc(Cl)c1 [compound 276] | 0* % | 0* % | 100* % | 0* % | 94* % | 98* % | 78* % | 0* % | 0* % | 0* % | 0* % | 0* %
9 | N#Cc1nc(Cl)c(-c2c(F)cccc2F)n(Cc2cccc(Cl)c2)c1=O [compound 277] | 0* % | 0* % | 63* % | 0* % | 41* % | 0* % | 0* % | 0* % | 0* % | 0* % | 0* % | 0* %
10 | Cc1ccn(-c2nc(Cl)c(-c3c(F)cccc3F)n(-c3ccccc3)c2=O)n1 [compound 278] | 31* % | 0* % | 100* % | 0* % | 100* % | 100* % | 100* % | 99* % | 0* % | 0* % | 92* % | 88* %
